Data: patent US20230337664A1, “FRUIT FLY CONTROL” (MACQUARIE UNIVERSITY, priority 2020, published 2023)

Tests used:
[1] = system: Bactrocera kraussi antenna; assay: GC-EAG responses, Bactrocera kraussi; conditions: both sexes
Text: (§1) Coupled Gas Chromatography-Electroantennography (GC-EAG) recordings were made with Ag-glass microelectrodes filled with electroconductive gel (Spectra 360, Parker Laboratories Inc., USA). The head of male or female flies (i.e., Bactrocera tryoni, Bactrocera jarvisi, Bactrocera kraussi, and Zeugodacus cucumis) was separated from the body with a microscalpel and was placed on the tip of the indifferent electrode, making sure the base of the head is affixed to the gel in the electrode. The tip of the insect antenna was made to touch the recording electrode and was slightly inserted into the gel to stabilize the antenna. The mounted heads were under charcoal filtered and humidified air flow (2400 mL min-1) controlled by a flow controller (Stimulus Controller CS-55, Syntech, Hilversum, The Netherlands). The signals were passed through a high impedance amplifier (UN-06, Syntech, Hilversum, The Netherlands). 1-octanol or 1-nonanol were tested individually or as mixture of known concentration. After injection of compounds, the effluent from the GC column was simultaneously directed to the antennal preparation and the GC detector. […] The outputs from the EAG amplifier and the FID were monitored simultaneously and analysed using the GCEAD 2014 software v1.2.5 (Syntech, The Netherlands).

[2] = system: Bactrocera tryoni; assay: Oviposition assay for Bactrocera tryoni; assay type: in vivo; conditions: 1.17% w/v in agar plate with γ-octalactone; P<0.0001
Procedure: Agar plates with oviposition stimulant (OS; γ-octalactone) with 1-octanol (1.17% w/v) or 1-nonanol (1.17% w/v) were used as oviposition substrate to determine the oviposition deterrent activity of 1-octanol and 1-nonanol to gravid female B. tryoni. Agarose (0.8 g in 100 ml water) was melted in a microwave, was cooled to 40° C. and appropriate amount of the oviposition stimulant in combination with 1-octanol or 1-nonanol was added. This mixture was poured into Petri plates and cooled at 0° C. in a refrigerator. This was done to enhance setting of the mixture and lower volatile vaporization. Oviposition substrates were prepared freshly when required. Oviposition plate containing OS alone (control), OS+1-octanol or OS+1-nonanol was provided to gravid females (50 gravid females; 15-20 days old) in cages (30×30×30 cm) to lay eggs. The eggs laid in each plate was enumerated under a stereo-dissecting microscope (Olympus, Japan). Thirty replicates for each test compound and control were carried out.

[3] = system: Bactrocera jarvisi; assay: Oviposition assay for Bactrocera jarvisi; assay type: in vivo; conditions: 1.17% in agar plate with mango juice; P<0.0001
Procedure: Agar plates with oviposition stimulant (MJ: Mango Juice) with 1-octanol (1.17%) or 1-nonanol (1.17%) were used as oviposition substrate to determine the oviposition deterrent activity of 1-octanol and 1-nonanol to gravid female B. jarvisi. Agar (0.8 g in 100 ml of diluted mango juice with water; 1:1) melted in a microwave, was cooled to 40° C. and appropriate amount of 1-octanol or 1-nonanol was added. This mixture was poured into Petri plates and cooled to 0° C. in a refrigerator. This was done to enhance setting of the mixture and lower volatile vaporization. Oviposition substrates were prepared freshly when required. Oviposition plate containing MJ alone (control), MJ+1-octanol or MJ+1-nonanol was provided to gravid females (20 gravid females; 15-20 days old) in cages (30×30×30 cm) to lay eggs. The eggs laid in each plate was enumerated under a stereo-dissecting microscope (Olympus, Japan). Twenty four replicates for each test compound and control were carried out.

[4] = system: Zeugodacus cucumis antenna; assay: GC-EAG responses, Zeugodacus cucumis; conditions: both sexes
Text: as §1

[5] = system: Bactrocera kraussi; assay: Oviposition assay for Bactrocera kraussi; assay type: in vivo; conditions: orange segments dipped in 1.17% w/v solution; P<0.0001
Text: Oranges from Woolworths (Marsfield, NSW) were washed with warm water and dried with paper towel. They were peeled and segmented and a single segment was used as oviposition substrate. Solution of 1-octanol (1.17% w/v) or 1-nonanol (1.17% w/v) were made by mixing appropriate amounts of 1-octanol or 1-nonanol in water with ethanol as an emulsifier. Orange segments of equal size, dipped into the above solutions for 15-20 sec, was provided to gravid females flies (20 gravid females; 20 days old) in cages (30×30×30 cm) to lay eggs. Orange segments dipped in water and emulsifier mixture was used as control. Eggs laid in each orange segment was enumerated under a stereo-dissecting microscope (Olympus, Japan). Twelve replicates for each test compound and control were carried out.

[6] = system: Bactrocera jarvisi antenna; assay: GC-EAG responses, Bactrocera jarvisi; conditions: both sexes
Text: as §1

[7] = system: Bactrocera tryoni antenna; assay: GC-EAG responses, Bactrocera tryoni; conditions: both sexes
Text: as §1

[8] = system: Ceratitis capitata; assay: Oviposition assay for Ceratitis capitata; assay type: in vivo; conditions: grapes dipped in 1.17% w/v solution; P<0.0001
Text: Red seedless grapes from IGA express (Murdoch University, Perth) washed with warm water thrice and dried with paper towel were used as oviposition substrate. Solution of 1-octanol (1.17% w/v) or 1-nonanol (1.17% w/v) were made by mixing appropriate amounts of 1-octanol or 1-nonanol in water with ethanol as an emulsifier. Washed grapes of equal size, dipped into the above solutions for 15-20 sec, was provided to gravid females (50 gravid females; 15-20 days old) in cages (30×30×30 cm) to lay eggs. Grapes that were dipped in water and emulsifier mixture was used as control. Eggs laid in each grapes was enumerated under a stereo-dissecting microscope (Olympus, Japan). Forty replicates for each test compound and control were carried out.

[9] = system: Zeugodacus cucumis; assay: Oviposition assay for Zeugodacus cucumis; assay type: in vivo; conditions: 1.17% w/v with zucchini juice on agar plate; P<0.0001
Procedure: Agar plates applied with oviposition stimulant (OS: fresh zucchini juice) with 1-octanol (1.17% w/v) or 1-nonanol (1.17% w/v) were used as oviposition substrate to determine the oviposition deterrent activity of 1-octanol and 1-nonanol to gravid female Z. cucumis. Agar (0.8 g in 100 ml water) was melted in a microwave, was cooled to 40° C. and poured into Petri plates and cooled at 0° C. Oviposition stimulant alone or OS mixed with 1-octanol or 1-nonanol (50 ul) was spread on agarose plates. Oviposition substrates were prepared freshly when required. Oviposition plate containing OS alone (control), OS+1-octanol or OS+1-nonanol was provided to gravid females (20 gravid females; 15-20 days old) in cages (30×30×30 cm) to lay eggs. The eggs laid in each plate was enumerated under a stereo-dissecting microscope (Olympus, Japan). Twenty four replicates for each test compound and control were carried out.

[10] = system: Ceratitis capitata antenna; assay: Standalone EAG, Ceratitis capitata; conditions: both sexes; ten replicates per compound per sex
Text: For the […], Ceratitis capitata, a standalone EAG was used for antennal recordings. Electroconductive gel (Spectra 360, Parker Laboratories Inc., USA) were applied to the arms of the metal electrodes and the head of male or female fly, separated from the body was affixed onto one of the indifferent metal arm. The recording arm with gel was made to touch a single or both the antenna of the fly. The antennal preparation was inserted to the EAG probe holder that was under filtered and humidified air the same as described above. The EAG signals were passed through a high impedance amplifier (UN-06, Syntech, Hilversum, The Netherlands). 1-Octanol or 1-nonanol of known concentrations were tested individually. The compounds (10 ul) were dispensed on a filter paper and were placed into a pasture pipette. The prepared pipettes were fixed tubing from the stimulus controller (CS-55, Syntech, The Netherlands) and the stimulus was puffed over the antennal preparation. The response was record using EAGPro software (Syntech, The Netherlands). Ten replicates were recorded for each compound per sex, with EAG activity confirmed in 100% of trials presenting 1-octanol or 1-nonanol for both sexes of C. capitata (FIG. 10E).

[11] = system: Bactrocera tryoni antenna; assay: GC-EAD electrophysiology of ant extracts; conditions: peak in Head and Headspace volatiles
Text: Coupled Gas Chromatography-Electroantennography (GC-EAG) recordings were made with Ag-glass microelectrodes filled with electroconductive gel (Spectra 360, Parker Laboratories Inc., USA). The head of male or female Bactrocera tryoni, anaesthetized by chilling, was separated from the body with a microscalpel and was placed on the tip of the indifferent electrode, making sure the base of the head is affixed to the gel in the electrode. The tip of the insect antenna was made to touch the recording electrode and was slightly inserted into the gel to stabilize the antenna. The signals were passed through a high impedance amplifier (UN-06, Syntech, Hilversum, The Netherlands) and analysed using a software package provided by Syntech. Each extract-cuticular compounds, Dufour's glands, poison glands, trail, headspace, and head extractions were tested individually. After injection of extraction samples, the effluent from the GC column was simultaneously directed to the antennal preparation and the GC detector. Separation of compounds was achieved on an Agilent Gas Chromatography system equipped with a column injector and a flame ionization detector (FID), using an Agilent HP-5 column (30 m×0.32 mm, 0.25 μm film). […] The outputs from the EAG amplifier and the FID were monitored simultaneously and analysed using the Syntech software package. […]

[12] = system: Bactrocera tryoni; assay: Mating assay (mating disruption); assay type: in vivo; conditions: of 15 trials; 5 microliters on filter paper, air pumped into arena; P<0.00001 vs control
Procedure: Mating assays were carried out at dusk, the normal mating time of B. tryoni. A pair of 15-day old male and female flies were introduced into a behavioural arena 30 min before the onset of dusk. They were allowed to acclimatize for 20 min after which 1-octanol or filtered air was pumped through the inlet of the arena. Five microliters of 1-octanol was applied on a clean filter paper. This filter paper was placed into an air-tight vessel with an inlet and outlet. Charcoal filtered air (1 litre per hour) was pumped into the vessel from the inlet and the outlet was connected to the inlet of the arena with flies. Air from a vessel with clean filter paper was used as control. Fifteen pairs were set up for both 1-octanol treatment and air control. The activity of flies was recorded overnight, and the video was analysed using BORIS software. Collected data included (1) whether a pair mated, (2) Number of copulation attempts, and (3) copula duration.

[13] = system: Bactrocera tryoni; assay: Four-arm olfactometer bioassay; assay type: in vivo; conditions: arm containing C1 vs without
Procedure: An acrylic four-arm olfactometer (120 mm dia.) was used to measure behavioural responses of Bactrocera tryoni males/females to food (yeast hydrolysate) with or without 1-octanol (EAG-active compound). Prior to each experiment, acrylic components were washed with a non-ionic detergent solution, rinsed with ethanol solution and distilled water, and left to air dry. Experiments were conducted in a controlled environment room (25±2° C., 60% RH). The central area was fitted with a filter-paper base (Whatmann No. 1, 12 cm dia.) to provide traction for the walking insects. The room was illuminated from above by uniform lighting from white fluorescent light bulbs to negate directional bias. Individual flies (10-15 days old) were introduced through a hole below the olfactometer. Each fly was given 5 min to acclimatize in the olfactometer, after which the experiment was run for 10 min for each replicate. The olfactometer was rotated 90° after each replicate to eliminate any directional bias in the room. Air was drawn through the central hole at 200 ml min-1 and subsequently exhausted from the room. The central arena of the olfactometer was divided into four discrete odour fields corresponding to each of four inlet arms. A choice test was performed that used two different opposite arms. […] Fly activity in each olfactometer was video recorded. The time spent in each arm was recorded using BORIS software. […]

Structure (SMILES)	Trials with EAG activity [1]	Eggs laid on oviposition plates vs control [2]	Eggs laid on oviposition plates vs control [3]	Trials with EAG activity [4]	Eggs laid vs control [5]	Trials with EAG activity [6]	Trials with EAG activity [7]	Eggs laid vs control [8]	Eggs laid on oviposition plates vs control [9]	Trials with EAG activity [10]	Response in fly's antenna (GC-EAD) [11]	Trials in which flies attempted mating [12]	Trials with successful mating [12]	Time spent in olfactometer arm [13]
CCCCCCCCCO [1-nonanol]	100 % of trials	significantly different from control	significantly different from control	100 % of trials	significantly different from control	100 % of trials	100 % of trials	significantly different from control	significantly different from control	100 % of trials	–	–	–	–
CCCCCCCCO [1-octanol]	100 % of trials	significantly different from control	significantly different from control	100 % of trials	significantly different from control	100 % of trials	100 % of trials	significantly different from control	significantly different from control	100 % of trials	trigger response	none	none	less time
